Assay results: patent US20060014644A1, “Phenylsulfonyl ureas, process for their preparation and their use as herbicides and plant growth regulators” (Hoechst Schering AgrEvo GmbH, priority 1999, published 2006)

What was measured:
[1] = test system: harmful plants such as Sinapis alba, Chrysanthemum segetum, Avena sativa, Stellaria media, Echinochloa crus-galli, Lolium multiflorum, Setaria spp., Abutilon …; assay: Pre-emergence effect on weeds (greenhouse pot test, visual scoring); format: in vivo, monocotyledonous and dicotyledonous weed plants; conditions: application rate of 0.3 kg and less of active substance per hectar, scored visually after 3 to 4 weeks by comparison with untreated controls
Excerpt: 1. Pre-Emergence Effect on Weeds
Seeds or rhizome pieces of monocotyledonous and dicotyledonous weed plants were placed in sandy loam soil in cardboard pots and covered with soil. The compounds according to the invention which were formulated in the form of wettable powders or emulsion concentrates were then applied to the surface of the soil cover in the form of aqueous suspensions or emulsions at an application rate of 600 to 800 l of water/ha (converted), in various dosages.
After the treatment, the pots were placed in a greenhouse and kept under good growth conditions for the weeds. After the test plants had emerged, the damage to the plants or the negative effect on the emergence was scored visually after a test period of 3 to 4 weeks by comparison with untreated controls. As shown by the test results, compounds according to the invention have good herbicidal pre-emergence activity against a broad spectrum of weed grasses and broad-leafed weeds.

[2] = test system: harmful plants such as Sinapis alba, Echinochloa crus-galli, Lolium multiflorum, Chrysanthemum segetum, Setaria spp., Abutilon theophrasti, Amaranthus …; assay: Post-emergence effect on weeds (greenhouse pot test, visual scoring); format: in vivo, monocotyledonous and dicotyledonous weeds; conditions: three-leaf stage, application rate of 0.3 kg and less of active substance per hectare, scored visually after about 3 to 4 weeks by comparison with untreated controls
Experimental: 2. Post-Emergence Effect on Weeds
Seeds or rhizome pieces of monocotyledonous and dicotyledonous weeds were placed in sandy loam soil in plastic pots, covered with soil and grown in a greenhouse under good growth conditions. Three weeks after sowing, the test plants were treated at the three-leaf stage. The compounds according to the invention which were formulated as wettable powders or emulsion concentrates were sprayed, at various dosages, onto the green parts of the plants at an application rate of 600 to 800 l of water/ha (converted). After the test plants had remained in the greenhouse for about 3 to 4 weeks under ideal growth conditions, the effect of the preparations was scored visually by comparison with untreated controls. The agents according to the invention also have good herbicidal activity post-emergence against a broad spectrum of economically important Weed grasses and broad-loafed weeds.

| SMILES | herbicidal activity against harmful plants, pre-emergence [1] | herbicidal activity against harmful plants, post-emergence [2] |
| --- | --- | --- |
| COC(=O)c1c(NCc2ccccc2)cccc1S(=O)(=O)NC(=O)Nc1nc(C)nc(OC)n1 [Example 1-383] | very good herbicidal activity | very good herbicidal activity |
| COC(=O)c1c(NC2CC2)cccc1S(=O)(=O)NC(=O)Nc1nc(OC)nc(OC)n1 [Example 1-359] | very good herbicidal activity | very good herbicidal activity |
| CNc1cccc(S(=O)(=O)NC(=O)Nc2nc(OC)cc(OC)n2)c1C(=O)OC [Example 1-105] | very good herbicidal activity | very good herbicidal activity |
| CCC(C)Nc1cccc(S(=O)(=O)NC(=O)Nc2nc(OC)nc(OC)n2)c1C(=O)OC (stereo not shown) [Example 1-271] | very good herbicidal activity | very good herbicidal activity |
| COC(=O)c1c(N)cccc1S(=O)(=O)NC(=O)Nc1nc(C)cc(OC)n1 [Example 1-17] | very good herbicidal activity | very good herbicidal activity |
| COC(=O)c1c(NCC(C)C)cccc1S(=O)(=O)NC(=O)Nc1nc(C)nc(OC)n1 [Example 1-179] | very good herbicidal activity | very good herbicidal activity |
| COC(=O)c1c(NCc2ccccc2)cccc1S(=O)(=O)NC(=O)Nc1nc(OC)nc(OC)n1 [Example 1-387] | very good herbicidal activity | very good herbicidal activity |
| COC(=O)c1c(NC2CC2)cccc1S(=O)(=O)NC(=O)Nc1nc(OC)cc(OC)n1 [Example 1-353] | very good herbicidal activity | very good herbicidal activity |
